According to patent US10597366B2, “Aryl ethers and uses thereof” (Peloton Therapeutics, Inc., priority 2013, dated 2020):
Where two headings read alike, the source gives them in different places.

What was measured:
[1] = tested on: VEGFA concentration in medium of 786-O cells; assay: VEGF ELISA Assay; type: cell-based; conditions: Homo sapiens
Method: Each concentration had duplicated wells. About 20 hours later, medium was removed by suction and each well was supplied with 180 μL of growth medium. About 20 μl freshly-made 10× compound stocks were added to each well. […] The EC50 was calculated by GraphPad Prism using the dose-response-inhibition (four parameter) equation. The cell seeded plate was then subjected to CellTiter-Glo luminescence cell viability assay (Promega) by adding 50 μL of Celltiter Glo reagent into each well and shaking the plate for 8 minutes at 550 rpm (Thermomixer R, Eppendorf) then read luminescence signal in plate reader (3 second delay, 0.5 second/well integration time, Synergy 2 multi Detection Microplate reader) immediately.

[2] = tested on: 786-O-Hif-Luc cells (luciferase gene driven by multiple HIF responsive elements); assay: Luciferase Assay; type: cell-based; conditions: 24 h, read-out: Mean Luciferease EC50
Method: A pool of infected cells were then selected against 2 μg/mL of puromycin (P8833, Sigma) for 10 days followed by limited dilution to select single clones.
Each concentration was tested in triplicate. After about 24 hours, luciferase activity was determined using ONE-Glo Luciferase Assay Reagent (E6110, Promega) following the manufacturer's recommended procedure. EC50 were calculated by using Dotmatics software.

[3] = tested on: HIF-2α HIS TAG-PASB Domain; assay: HIF-2α Scintillation Proximity Assay (SPA); type: binding; conditions: compounds listed by structure and IUPAC name
Method: The percent inhibition was determined and IC50 values were calculated using the Dotmatics system based on the following equation: % inhibition=[(high control sample)/(high control low control)]×100.

[4] = 786-0, 786-O cells, read-out: Mean VEGF ELISA EC50
[5] = 786-O-Hif-Luc cells, about 24 hours
[6] = 786-0, read-out: Mean VEGF ELISA EC50

Row | EC50 [1, 4] [nM] | EC50 [2, 5] [nM] | SMILES | further results
1 | 7 | 5 | CS(=O)(=O)c1ccc(Oc2cc(F)cc(F)c2)c2c1C(O)C(F)(F)C2 (centres unmarked) [Compound 159, 4-(3,5-Difluorophenoxy)-2,2-difluoro-7-(methylsulfonyl)-2,3-dihydro-1H-inden-1-ol] | 
2 | 6.2 | 4.6 | N#Cc1cc(F)cc(Oc2ccc(C(F)(F)F)c3c2CC(F)(F)[C@H]3O)c1 [Compound 273, 3-[(1S)-2,2-Difluoro-1-hydroxy-7-(trifluoromethyl)indan-4-yl]oxy-5-fluoro-benzonitrile] | 
3 | 81 |  | CS(=O)(=NC#N)c1ccc(Oc2cc(F)cc(C#N)c2)c2c1[C@H](O)C(F)(F)C2 (some centres unmarked) [Compound 240] | 
4 | 130 | 53 | CS(=O)(=NC#N)c1ccc(Oc2cc(F)cc(F)c2)c2c1C(O)C(F)(F)C2 (centres unmarked) [Compound 191, N-((7-(3,5-difluorophenoxy)-2,2-difluoro-3-hydroxy-2,3-dihydro-1H-inden-4-yl)(methyl)(oxo)-λ^6-sulfanylidene)cyanamide] | 
5 | 35 | 32 | O=S(=O)(c1ccc(Oc2cc(F)cc(F)c2)c2c1[C@H](O)CC2)C(F)(F)F [Compound 55, (R)-4-(3,5-Difluorophenoxy)-7-((trifluoromethyl)sulfonyl)-2,3-dihydro-1H-inden-1-ol] | 
6 | 6.2 | 3.1 | CS(=O)(=O)c1ccc(Oc2cc(F)cc(C#N)c2)c2c1[C@H](O)C(F)(F)[C@@H]2F [Compound 292, 3-fluoro-5-[(1S,3R)-2,2,3-trifluoro-1-hydroxy-7-methylsulfonyl-indan-4-yl]oxy-benzonitrile] | 
7 | 460 | 520 | Cc1c(S(=O)(=O)C(F)F)ccc(Oc2cc(F)cc(F)c2)c1C#N [Compound 34, 3-((Difluoromethyl)sulfonyl)-6-(3,5-difluorophenoxy)-2-methylbenzonitrile] | 
8 | 140 | 110 | O=S(=O)(c1ccc(Oc2cc(F)c[n+]([O-])c2)c2c1[C@H](O)C(F)(F)C2)C(F)(F)F [Compound 310, (S)-3-((2,2-difluoro-1-hydroxy-7-((trifluoromethyl)sulfonyl)-2,3-dihydro-1H-inden-4-yl)oxonio)-5-fluoropyridine 1-oxide] | 
9 | 640 |  | O=S(=O)(c1ccc(Oc2cc(F)cc(Cl)c2)c(Br)c1CO)C(F)(F)F [Compound 102, (2-Bromo-3-(3-chloro-5-fluorophenoxy)-6-((trifluoromethyl)sulfonyl)phenyl)methanol] | 
10 | 630 | 310 | N#Cc1cc(F)cc(Oc2ccc(S(=O)(=O)C(F)F)c(CO)c2Br)c1 [Compound 80, 3-(2-Bromo-4-((difluoromethyl)sulfonyl)-3-(hydroxymethyl)phenoxy)-5-fluorobenzonitrile] | 
11 | 1 | 5 | O=S(=O)(CF)c1ccc(Oc2cc(F)cc(F)c2)c2c1[C@H](O)C(F)(F)C2 [Compound 64, (S)-4-(3,5-Difluorophenoxy)-2,2-difluoro-7-((fluoromethyl)sulfonyl)-2,3-dihydro-1H-inden-1-ol] | 
12 | 28 | 33 | N#Cc1cc(Oc2ccc(S(=O)(=O)C(F)(F)F)c3c2CC(F)(F)[C@H]3O)ccc1F [Compound 228, (S)-5-((2,2-Difluoro-1-hydroxy-7-((trifluoromethyl)sulfonyl)-2,3-dihydro-1H-inden-4-yl)oxy)-2-fluorobenzonitrile] | 
13 | 17 | 12 | CS(=O)(=NC#N)c1ccc(Oc2cc(F)cc(C#N)c2)c2c1[C@H](O)C(F)(F)[C@@H]2F (single isomer, unassigned) [Compound 316] | 
14 | 1600 |  | O=S(=O)(c1ccc(Oc2cc(F)cc(Cl)c2)c(Br)c1Cl)C(F)(F)F [Compound 179, 2-Bromo-3-chloro-1-(3-chloro-5-fluorophenoxy)-4-((trifluoromethyl)sulfonyl)benzene] | 

More lines, now with the values behind:

Row | SMILES | EC50 [1, 4] [nM] | EC50 [2, 5] [nM] | further results
15 | CS(=O)(=O)c1ccc(Oc2cc(Cl)cc(C#N)c2)c2c1[C@H](O)C(F)(F)C2 [Compound 234, (S)-3-Chloro-5-((2,2-difluoro-1-hydroxy-7-(methylsulfonyl)-2,3-dihydro-1H-inden-4-yl)oxy)benzonitrile] |  |  | EC50 [1, 6]: 50 nM; EC50 [2]: 41 nM
16 | O=S(=O)(c1ccc(Oc2cncc(Cl)c2)c2c1[C@H](O)C(F)(F)C2)C(F)(F)F [Compound 186, (S)-4-((5-Chloropyridin-3-yl)oxy)-2,2-difluoro-7-((trifluoromethyl)sulfonyl)-2,3-dihydro-1H-inden-1-ol] | 13 | 11 | 
17 | CS(=O)(=O)c1ccc(Oc2cncc(C#N)c2)c2c1[C@H](O)C(F)(F)[C@@H]2F [Compound 342, 5-(((1S,3R)-2,2,3-trifluoro-1-hydroxy-7-(methylsulfonyl)-2,3-dihydro-1H-inden-4-yl)oxy)nicotinonitrile] | 52 | 91 | 
18 | O=[N+]([O-])c1c(Oc2cc(F)cc(Cl)c2)ccc(C(F)(F)F)c1Cl [Compound 203, 2-Chloro-4-(3-chloro-5-fluorophenoxy)-3-nitro-1-(trifluoromethyl)benzene] | 700 | 630 | 
19 | O=S(=O)(c1ccc(Oc2cc(F)cc(F)c2)c2c1[C@H](O)CC2)C(F)F [Compound 2, (R)-7-((Difluoromethyl)sulfonyl)-4-(3,5-difluorophenoxy)-2,3-dihydro-1H-inden-1-ol] | 62 | 70 | 
20 | O=S(=O)(c1ccc(Oc2cc(F)cc(Cl)c2)c(Cl)c1CO)C(F)F [Compound 41, (2-Chloro-3-(3-chloro-5-fluorophenoxy)-6-((difluoromethyl)sulfonyl)phenyl)methanol] |  |  | EC50 [1, 6]: 570 nM; EC50 [2]: 400 nM
21 | O=S(=O)(c1ccc(Oc2cc(F)cc(F)c2)c2c1C(O)C(F)(F)C2)C(F)F (centres unmarked) [Compound 9, 7-(difluoromethylsulfonyl)-4-(3,5-difluorophenoxy)-2,2-difluoro-indan-1-ol] | 6 | 9 | 
22 | O=S(=O)(c1ccc(Oc2cc(F)cc(Cl)c2)c(C(F)F)c1)C(F)(F)F [Compound 124, 1-(3-Chloro-5-fluorophenoxy)-2-(difluoromethyl)-4-((trifluoromethyl)sulfonyl)benzene] |  |  | EC50 [1, 6]: 400 nM; EC50 [2]: 330 nM
23 | N#Cc1cc(S(=O)(=O)C(F)F)ccc1Oc1cc(F)cc(Cl)c1 [Compound 133, 2-(3-Chloro-5-fluorophenoxy)-5-((difluoromethyl)sulfonyl)benzonitrile] | 1870 |  | 
24 | CS(=O)(=O)c1cccc(Oc2ccc(S(=O)(=O)C(F)(F)F)c3c2CC(F)(F)[C@H]3O)c1 [(1S)-2,2-difluoro-4-(3-methylsulfonylphenoxy)-7-(trifluoromethylsulfonyl)indan-1-ol] |  |  | IC50 [3]: > 100000 nM
25 | COC(=O)c1cc(F)cc(Oc2ccc(S(=O)(=O)C(F)(F)F)cc2Br)c1 [methyl 3-[2-bromo-4-(trifluoromethylsulfonyl)phenoxy]-5-fluoro-benzoate] |  |  | IC50 [3]: > 100000 nM
26 | O=S(=O)(c1ccc(Oc2cc(F)cc(Cl)c2)c2c1[C@H](O)CC2)C(F)F [Compound 1, (R)-4-(3-chloro-5-fluorophenoxy)-7-((difluoromethyl)sulfonyl)-2,3-dihydro-1H-inden-1-ol] |  |  | EC50 [1, 6]: 250 nM
27 | N#Cc1ccc(Oc2cc(F)cc(F)c2)c2c1[C@H](O)C(F)(F)C2 [Compound 67, (S)-7-(3,5-Difluorophenoxy)-2,2-difluoro-3-hydroxy-2,3-dihydro-1H-indene-4-carbonitrile] |  |  | EC50 [1, 6]: 220 nM
28 | O=S(=O)(c1ccc(Oc2cc(F)cc(Cl)c2)c2c1C(O)CC2)C(F)F (centres unmarked) [Compound 17, 4-(3-chloro-5-fluorophenoxy)-7-((difluoromethyl)sulfonyl)-2,3-dihydro-1H-inden-1-ol] |  |  | EC50 [1, 6]: 160 nM
29 | O=S(=O)(c1ccc(Oc2cc(F)cc(F)c2)c2c1C(O)CC2)N1CCOCC1 (centres unmarked) [4-(3,5-difluorophenoxy)-7-morpholinosulfonyl-indan-1-ol] |  |  | IC50 [3]: > 100000 nM
30 | O=S(=O)(c1ccc(Oc2cc(F)cc(Cl)c2)c(CC(O)CO)c1)C(F)(F)F (centres unmarked) [3-[2-(3-chloro-5-fluoro-phenoxy)-5-(trifluoromethylsulfonyl)phenyl]propane-1,2-diol] |  |  | IC50 [3]: > 100000 nM
31 | N#Cc1cccc(Oc2cc(F)cc(Cl)c2)c1Br [2-bromo-3-(3-chloro-5-fluoro-phenoxy)benzonitrile] |  |  | IC50 [3]: > 100000 nM
32 | Cc1c(Oc2cc(F)cc(C#N)c2)ccc(S(=O)(=O)C(F)(F)F)c1/C=C/C(=O)O [(E)-3-[3-(3-cyano-5-fluoro-phenoxy)-2-methyl-6-(trifluoromethylsulfonyl)phenyl]prop-2-enoic acid] |  |  | IC50 [3]: > 100000 nM
33 | CC1Cc2c(Oc3cc(F)cc(C#N)c3)ccc(S(C)(=O)=O)c2C1=O (centres unmarked) [3-fluoro-5-((2-methyl-7-(methylsulfonyl)-1-oxo-2,3-dihydro-1H-inden-4-yl)oxy)benzonitrile] |  |  | IC50 [3]: > 100000 nM
34 | CS(=O)(=O)c1ccc(Oc2cc(F)cc(F)c2)c2c1C(NC(=O)c1ccc(F)cc1)C(F)(F)C2 (centres unmarked) [N-[4-(3,5-difluorophenoxy)-2,2-difluoro-7-methylsulfonyl-indan-1-yl]-4-fluoro-benzamide] |  |  | IC50 [3]: > 100000 nM
